Measured values as given in article PMC9020739, “Identification of a two-component regulatory system involved in antimicrobial peptide resistance in Streptococcus pneumoniae” (PLoS Pathogens, 2022).
Converted amounts (≈) assume the structure as drawn. Where a SMILES comes first, the peptide text is derived from it. Bridges are numbered along the chain shown (N, C = ends). [ ]: non-standard residue; d: D form. The star is where a group is joined. Ileψ(thiazoline)Cys = CC[C@H](C)[C@H](N)C1=N[C@H](C(=O)*)CS1; dOrn = NCCC[C@@H](N)C(=O)O

Columns and labels:
Type in all cases: cell-based, Streptococcus pneumoniae
S. pneumoniae D39 WT = conditions: D39 strain
Protocol: (§1) The MIC of various antimicrobial peptides for R6, R800 and D39 strains was determined by classical 2-fold broth dilution method. Cells were first grown in Todd-Hewitt medium at 37°C without agitation and in anaerobic conditions until the absorbance reaches approximatively 0.3. Complementation strains were grown with 0.5 μM ComS inducer until the appropriate OD. Cells were then diluted at final OD600nm = 0.002 in 96-well plates containing 300 μL of Todd-Hewitt medium (and 2 μM ComS inducer for the complementation strains) with serial dilutions of antimicrobial peptides. Pneumococcal growth was monitored by a microplate reader (TECAN) at 37°C without agitation. The absorbance was followed at 600 nm every 15 min for 15 h.

[1] = system: S. pneumoniae D39 ΔbceAB/tcs01; conditions: D39 strain; 2-fold broth dilution, Todd-Hewitt medium, 37°C, 15 h; two to four biological replicates, each technical duplicates
Protocol: as §1

S. pneumoniae D39 ΔbceAB = conditions: D39 strain; 2-fold broth dilution, Todd-Hewitt medium, 37°C, 15 h; two to four biological replicates, each technical duplicates
Protocol: as §1

S. pneumoniae D39 Δtcs01 = conditions: D39 strain; 2-fold broth dilution, Todd-Hewitt medium, 37°C, 15 h; two to four biological replicates, each technical duplicates
Protocol: as §1

S. pneumoniae R6 WT = conditions: R6 strain
Protocol: as §1

[2] = system: S. pneumoniae R6 ΔbceAB/tcs01; conditions: R6 strain; 2-fold broth dilution, Todd-Hewitt medium, 37°C, 15 h; two to four biological replicates, each technical duplicates
Protocol: as §1

S. pneumoniae R6 ΔbceAB = conditions: R6 strain; 2-fold broth dilution, Todd-Hewitt medium, 37°C, 15 h; two to four biological replicates, each technical duplicates
Protocol: as §1

S. pneumoniae R6 Δtcs01 = conditions: R6 strain; 2-fold broth dilution, Todd-Hewitt medium, 37°C, 15 h; two to four biological replicates, each technical duplicates
Protocol: as §1

S. pneumoniae R800 WT = conditions: R800 strain; 2-fold broth dilution, Todd-Hewitt medium, 37°C, 15 h; at least biological triplicates, each technical duplicates
Protocol: as §1

[3] = system: S. pneumoniae R800 bceAB-gfp; conditions: R800 strain; 2-fold broth dilution, Todd-Hewitt medium, 37°C, 15 h; at least biological triplicates, each technical duplicates
Protocol: as §1

[4] = system: S. pneumoniae R800 ΔbceAB-Δhk01-PcomX-hk01; conditions: R800 complementation strain, 2 μM ComS inducer; 2-fold broth dilution, Todd-Hewitt medium, 37°C, 15 h; at least biological triplicates, each technical duplicates
Protocol: as §1

[5] = system: S. pneumoniae R800 ΔbceAB; conditions: R800 strain; 2-fold broth dilution, Todd-Hewitt medium, 37°C, 15 h; at least biological triplicates, each technical duplicates
Protocol: as §1

[6] = system: S. pneumoniae R800 Δhk01-PcomX-hk01
Protocol: as §1

S. pneumoniae R800 Δhk01 = conditions: R800 strain; 2-fold broth dilution, Todd-Hewitt medium, 37°C, 15 h; at least biological triplicates, each technical duplicates
Protocol: as §1

[7] = system: bceAB and tcs01 genes in S. pneumoniae D39 WT; assay: Quantification of gene expression by qPCR; conditions: D39 wild-type, bacitracin 1 μg/ml for 5, 15 and 30 min, relative to untreated control
Protocol: (§2) S. pneumoniae D39 WT and Δtcs01 strains were routinely grown to OD600nm = 0.3 in THY. Then 1 μg/mL of bacitracin was added to the growth media for up to 30 min. Samples were taken at time points shown in the results section. Next, the cultures were mixed with RNA protect (Qiagen) at 1:1 ratio and incubated at room temperature for 5 min and centrifuged for 10 min at 3, 200 g at 4°C. The supernatant was decanted and the pellet was stored at -80°C. The bacteria were resuspended in 100 μL of sterile Tris-EDTA (TE), containing 15 mg/mL lysozyme (Sigma) then 20 μL of Proteinase K (20 mg/mL) (Roche) were added. The sample was vortexed 5 times for 10 sec at two-minutes intervals. Then 350 μL of lysis buffer from the Nucleospin RNA kit (Macherey-Nagel) were added to the sample with 3.5 μL of β-mercaptoethanol and 25 mg of glass beads (Sigma). The cells were lysed by continual vortexing for 5 min. The mRNA was extracted according to the manufacturer’s instructions. After elution, RNA samples were incubated with 5 μL of DNAse for 20 min at room temperature, then inactivated by heating for 70°C for 5 min. RNA concentration was measured using Nanovue (GE Healthcare). For cDNA synthesis 1 μg of RNA was generally used with the SuperScript III kit (Invitrogen) containing a reverse transcriptase, a set of primers, dNTPs, MgCl2 random hexamers and […] after the cDNA generation according to manufacturer’s instructions. Samples were then stored at -20°C. qPCR measurements were done with 2.5 μL of cDNA mixed with 1 μL (3 μM final) of forward and reverse primers, 5 μL iQ SYBR Green Supermix (BioRad) and 0.5 μL water using the CFX Connect Optical Module (BioRad) program as follows: 95°C for 3 min, then a repeat 40 times of 95°C for 10 sec, 55°C for 30 sec, and a fluorescence reading.

[8] = system: bceAB genes in S. pneumoniae D39 Δtcs01; assay: Quantification of gene expression by qPCR; conditions: D39 Δtcs01 knockout; bacitracin 1 μg/ml
Protocol: as §2

CC[C@H](C)[C@H](N)C1=N[C@H](C(=O)N[C@@H](CC(C)C)C(=O)N[C@H](CCC(=O)O)C(=O)N[C@H](C(=O)N[C@H]2CCCCNC(=O)[C@H](CC(N)=O)NC(=O)[C@@H](CC(=O)O)NC(=O)[C@H](Cc3cnc[nH]3)NC(=O)[C@@H](Cc3ccccc3)NC(=O)[C@H]([C@@H](C)CC)NC(=O)[C@@H](CCCN)NC2=O)[C@@H](C)CC)CS1 [bacitracin] ({Ileψ(thiazoline)Cys}-L[dE]IK[dOrn]I[dF]H[dD]N; lactam 4-C (inferred); N-terminus assumed)
Minimum Inhibitory Concentration, WT (S. pneumoniae D39 WT; 2-fold broth dilution, Todd-Hewitt medium, 37°C, 15 h, two to four biological replicates, each technical duplicates): 4 µg/mL | Fold sensitivity diplayed by the KO strains (S. pneumoniae D39 WT; KO strains versus WT MIC): 4 | Minimum Inhibitory Concentration, ΔbceAB/tcs01 [1]: 1 µg/mL | Minimum Inhibitory Concentration, ΔbceAB (S. pneumoniae D39 ΔbceAB): 1 µg/mL | Minimum Inhibitory Concentration, Δtcs01 (S. pneumoniae D39 Δtcs01): 1 µg/mL | Minimum Inhibitory Concentration, WT (S. pneumoniae R6 WT; 2-fold broth dilution, Todd-Hewitt medium, 96-well plates, start OD600 0.002, 37°C, A600 followed 15 h, two to four biological replicates, each technical duplicates): 8 µg/mL | Fold sensitivity displayed by the KO strains (S. pneumoniae R6 WT; KO strains versus WT MIC): 8 | Minimum Inhibitory Concentration, ΔbceAB/tcs01 [2]: 1 µg/mL | Minimum Inhibitory Concentration, ΔbceAB (S. pneumoniae R6 ΔbceAB): 1 µg/mL | Minimum Inhibitory Concentration, Δtcs01 (S. pneumoniae R6 Δtcs01): 1 µg/mL | MIC, WT (S. pneumoniae R800 WT): 4 µg/mL (≈ 2.81 µM) | MIC, bceAB-gfp [3]: 4 µg/mL (≈ 2.81 µM) | MIC, ΔbceAB-Δhk01-PcomX-hk01 [4]: 1 µg/mL (≈ 0.703 µM) | MIC, ΔbceAB [5]: 1 µg/mL (≈ 0.703 µM) | Resistance as compared to the WT strain ([6]; R800-Δhk01-PcomX-rr01-hk01 versus R800 WT, from MICs): 64 fold | MIC, Δhk01-PcomX-hk01 ([6]; R800 complementation strain, 2 μM ComS inducer, 2-fold broth dilution, Todd-Hewitt medium, 37°C, 15 h, at least biological triplicates, each technical duplicates): 256 µg/mL (≈ 180 µM) | MIC, Δhk01 (S. pneumoniae R800 Δhk01): 1 µg/mL (≈ 0.703 µM) | Transcription of the tcs01 genes [7]: unaffected | Transcription of the bceAB genes ([7]; n = 6-8): strong upregulation | Transcription of the bceAB genes [8]: failed to upregulate
